Test results as given in patent US20110054179A1, “MMP-2 AND/OR MMP-9 INHIBITOR” (priority 2008, published 2011).

Tests used:
[1] = system: elastase-induced lung injury; assay: Rabbit model of elastase-induced lung injury: lung histology (alveolar destruction, airway subepithelial fibrotic changes); type: in vivo
Text: Rabbits were divided into three groups (n=10 animals/group). Two hundred U/kg of porcine pancreatic elastase (PPE) was intratracheally administered into the lungs of the animals in the Vehicle and the Compound A group. The animals in the Sham group was intratracheally administered the same volume of saline instead of PPE. The rabbits were dissected 28 days after PPE administration. The lung tissue of each rabbit was fixed in formalin to prepare histological sections thereof. Two hours prior to the administration of PPE, Vehicle (0.5% tragacanth) or Compound A (10 mg/kg) was orally administered to the rabbits in the Vehicle and the Compound A group, respectively; from the next day, the oral administration of Vehicle or Compound A was continued once a day, 5 days a week until the end of the experiment. The histological sections were immunohistochemically stained using respective antibodies against MMP-2 or MMP-9. Then, under the microscope, the extent of MMP-2 and MMP-9 expression was evaluated, and expressed as a score. The extent of the fibrotic changes in the airway subepithelial region and the extent of alveolar destruction were also observed.

[2] = system: bleomycin- or asbestos-induced lung fibrosis; conditions: bleomycin- or asbestos-induced lung fibrosis animal model; cited from earlier work
[3] = 28 days after PPE, 10 mg/kg oral, vs. Vehicle group

SMILES: CCOc1ccc(-c2nc(-c3cccc(C(=O)O)n3)cs2)cc1OCC [Compound A, 6-[2-(3,4-diethoxyphenyl)thiazol-4-yl]pyridine-2-carboxylic acid]
- Alveolar Mean Linear Intercept (Average ± Standard deviation) ([1]; 28 days after PPE 200 U/kg intratracheal, 10 mg/kg oral once a day, 5 days a week, p<0.01 vs. Vehicle): 72.8 ± 2.6 μm ##
- alveolar destruction [1, 3]: significantly suppressed
- thickening of the airway subepithelial layer resulted from fibrotic changes [1, 3]: alleviated

SMILES: CNC(=O)[C@H](Cc1c[nH]c2ccccc12)NC(=O)[C@@H](CC(=O)NO)CC(C)C [GM6001]
- increase in MMP activity and the number of white blood cell infiltrated in the bronchoalveolar lavage fluid [2]: suppressed
- lung fibrosis in the histological and biochemical aspects [2]: suppressed
